Measurements as given in PMC9289130, “Pharmacokinetic Study of Four Major Bioactive Components of Liandan Xiaoyan Formula in Ulcerative Colitis and Control Rats Using UPLC-MS/MS” (Frontiers in Pharmacology, 2022).
Like-named read-outs stand apart in the source and are kept apart here.

Tests used:
[1] = Stability test of QC samples in rat serum; type: in vitro ADME; details: n = 6
Experimental: Quality control (QC) samples at low, middle and high concentrations (61.50, 384.38, and 4,000.00 ng/ml for andrographolide; 24.00, 150.00, and 1,500.00 ng/ml for dehydroandrographolide; 6.91, 43.20, and 450.00 ng/ml for 1-methoxicabony-β-carboline; 6.30, 39.38, and 400.00 ng/ml for 4-methoxy-5-hydroxy-canthin-6-one) were also prepared by the same procedures.
Recovery was determined at three QC levels and calculated by comparing the compound standard peak areas obtained from extracted samples with post-extracted samples spiked with the compound. Matrix effects were calculated by matching spiking post-extracted blank serum samples with corresponding standard clean solutions at three concentrations of QC samples.

[2] = Pharmacokinetic study in control and DSS-induced UC rats after oral administration of LXF (serum, UPLC-MS/MS); type: in vivo, Sprague-Dawley (SD) rats; details: for AUC(0-inf) / AUC(0-t) / Cmax / Tmax / half-life / MRT inf: male, Sprague-Dawley, rat, serum, po, 3.3 g/kg, oral LXF 3.30 g/kg, rat serum, n = 8, mean ± SD; for MRT inf: read-out: MRT0→∞
Experimental: Sixteen male Sprague-Dawley (SD) rats (220 ± 10 g) were provided from the Liaoning Changsheng Biotechnology Co., Ltd (Benxi, China; with license No. of SCXK, 2020-0001). The rats were kept in an environment (22 ± 2°C, relative humidity 50 ± 5%) under a 12-h light-dark cycle with a free diet and water for 3 days. All experiments on animals were conducted strictly under the related ethics regulations of the Committee on Use and Care of Animals of Guangzhou University of Chinese Medicine (Guangzhou, China) (No. 712052).
All rats were assigned equally and randomly to the control and model groups. The rats of the model group were free to access 4% DSS for 7 days to induce UC, and rats of the control group were given pure water ([Chen et al., 2020]). Before the pharmacokinetics study, the DSS-induced UC rats (model) were established successfully (Supplementary Material Part B).
After fasting for 12 h, the rats were orally administered LXF at a 3.30 g/kg dose according to Prescription preparation of Chinese medicine, volume 10 ([Lu et al., 2021]). Serum samples (approximately 0.5 ml) were collected from the fosse orbital vein using 1.5 ml polythene tubes before the administration and at 0.083, 0.25, 0.5, 1, 1.5, 2.5, 4, 6, 8, 12, 24, 36, and 48 h after dosing and centrifuged immediately at 3,500 rpm for 15 min. Serum was transferred into clean tubes and stored at −80°C.
100 μl of IS solution (960 ng/ml) was added to a 100 μl serum sample and vortex-mixed for 0.5 min, and then 800 μl of methanol was added and vortex-mixed for 3 min. After centrifugation at 12,000 rpm for 15 min (4°C), the supernatant of the mixture was transferred to another vial and evaporated to dryness with nitrogen purging. The residue was resolved with 100 μ of methanol, vortex-mixed for 1 min, and centrifuged at 12,000 rpm for 10 min (4°C). A 2 μl aliquot of the supernatant was injected into the UPLC-MS/MS system for analysis.
Chromatographic analysis was performed using UPLC-MS/MS, utilizing a Finnigan Surveyor auto-sampler and a Finnigan Surveyor LC pump combined with a triple quadrupole TSQ Quantum mass spectrometer electrospray ionization (ESI) interface (Thermo Fisher, Palo Alto, CA). The chromatographic separation was performed on the Waters Acquity UPLC BEH C18 column (2.1 mm × 100 mm; 1.7 µm). The mobile phase consisted of acetonitrile (A) and 0.1% formic acid (B) with a gradient elution program (0-5 min, 20% A-35% A; 5-6 min, 35% A-100% A; 6–8min, 100% A; 8–8.5 min, 100% A-20% A; 8.5–10.5 min, 20% A) at a flow rate of 0.4 ml/min. The column temperature was maintained at 40°C throughout the analysis. The injection volume was 2 μl.
Quantification was performed using multiple reaction monitoring (MRM) in the positive ionization mode, and the optimized MRM parameters of the four analytes and IS are listed in Table 1. The MRM transition, retention time (RT), and collision energy (CE) values were based on Thermo Foundation 2.0. Curtain gas pressure at 35 psi, ion source gas 1 and gas 2 at 55 psi, ion spray voltage at 5500 V, and temperature at 500°C.
Non-compartment model pharmacokinetic parameters, including the time to reach the maximum serum concentration (Tmax), the maximum serum concentration (Cmax), the elimination half-time (T1/2), the area under the serum concentration-time curve (AUC), and mean residence time (MRT), were calculated by DAS (version 3.2.8, Chinese Pharmacological Association, Anhui, China). The difference between the control and model groups was statistically analyzed using SPSS 26.0 (IBM Company, Chicago). All data in this study were subjected to a one-way analysis of variance (ANOVA) and then expressed by mean ± standard deviation (SD). LSD t-test was applied when the homogeneity of variance assumptions was satisfied; otherwise, Dunnett’s t-test was used. A p < 0.05 was considered statistically significant.

[3] = 4°C for 24 h, high QC (nominal 4,000.00 / 1,500.00 / 450.00 / 400.00 ng/ml for compounds 1-4)
[4] = 4°C for 24 h, low QC (nominal 61.50 / 24.00 / 6.91 / 6.30 ng/ml for compounds 1-4)
[5] = 4°C for 24 h, middle QC (nominal 384.38 / 150.00 / 43.20 / 39.38 ng/ml for compounds 1-4)
[6] = 25°C for 12 h, high QC (nominal 4,000.00 / 1,500.00 / 450.00 / 400.00 ng/ml for compounds 1-4)
[7] = 25°C for 12 h, low QC (nominal 61.50 / 24.00 / 6.91 / 6.30 ng/ml for compounds 1-4)
[8] = 25°C for 12 h, middle QC (nominal 384.38 / 150.00 / 43.20 / 39.38 ng/ml for compounds 1-4)
[9] = three freeze-thaw, high QC (nominal 4,000.00 / 1,500.00 / 450.00 / 400.00 ng/ml for compounds 1-4)
[10] = three freeze-thaw, low QC (nominal 61.50 / 24.00 / 6.91 / 6.30 ng/ml for compounds 1-4)
[11] = three freeze-thaw, middle QC (nominal 384.38 / 150.00 / 43.20 / 39.38 ng/ml for compounds 1-4)
[12] = −80°C for 30 days, high QC (nominal 4,000.00 / 1,500.00 / 450.00 / 400.00 ng/ml for compounds 1-4)
[13] = −80°C for 30 days, low QC (nominal 61.50 / 24.00 / 6.91 / 6.30 ng/ml for compounds 1-4)
[14] = −80°C for 30 days, middle QC (nominal 384.38 / 150.00 / 43.20 / 39.38 ng/ml for compounds 1-4)

SMILES: COC(=O)c1nccc2c1[nH]c1ccccc12 [1-methoxicabony-β-carboline]
- Stability, mean concentration found [1, 3]: 442.09 ± 15.98 ng/mL
- Stability, mean concentration found [1, 4]: 7.71 ± 0.12 ng/mL
- Stability, mean concentration found [1, 5]: 44.64 ± 3.27 ng/mL
- Stability, mean concentration found [1, 6]: 439.66 ± 16.78 ng/mL
- Stability, mean concentration found [1, 7]: 7.09 ± 0.16 ng/mL
- Stability, mean concentration found [1, 8]: 42.21 ± 3.37 ng/mL
- Stability, mean concentration found [1, 9]: 440.84 ± 17.31 ng/mL
- Stability, mean concentration found [1, 10]: 6.63 ± 0.51 ng/mL
- Stability, mean concentration found [1, 11]: 42.04 ± 2.18 ng/mL
- Stability, mean concentration found [1, 12]: 436.91 ± 13.57 ng/mL
- Stability, mean concentration found [1, 13]: 7.43 ± 0.66 ng/mL
- Stability, mean concentration found [1, 14]: 42.66 ± 1.92 ng/mL
- AUC(0-inf) ([2]; UC group (4% DSS for 7 days)): 444 ± 154 ng·h/mL
- AUC(0-t) ([2]; UC group (4% DSS for 7 days)): 424 ± 143 ng·h/mL
- Cmax ([2]; UC group (4% DSS for 7 days)): 160 ± 18.9 ng/mL
- Tmax ([2]; UC group (4% DSS for 7 days)): 1.13 ± 0.23 h
- half-life ([2]; UC group (4% DSS for 7 days)): 1.2 ± 0.41 h
- MRT inf ([2]; UC group (4% DSS for 7 days)): 2.23 ± 0.63 h
- AUC(0-inf) ([2]; control group): 219 ± 79.2 ng·h/mL
- AUC(0-t) ([2]; control group): 215 ± 78.4 ng·h/mL
- Cmax ([2]; control group): 129 ± 33.9 ng/mL
- Tmax ([2]; control group): 0.69 ± 0.37 h
- half-life ([2]; control group): 1.02 ± 0.43 h
- MRT inf ([2]; control group): 1.52 ± 0.33 h
- Tmax and MRT0–∞ in the UC group compared with the control group ([2]; oral LXF, p < 0.05): longer

SMILES: COc1c(O)c(=O)n2c3ccccc3c3ccnc1c32 [4-methoxy-5-hydroxy-canthin-6-one]
- Stability, mean concentration found [1, 3]: 391.53 ± 10.08 ng/mL
- Stability, mean concentration found [1, 4]: 6.38 ± 0.41 ng/mL
- Stability, mean concentration found [1, 5]: 39.35 ± 4.12 ng/mL
- Stability, mean concentration found [1, 6]: 387.02 ± 9.84 ng/mL
- Stability, mean concentration found [1, 7]: 5.50 ± 0.37 ng/mL
- Stability, mean concentration found [1, 8]: 40.41 ± 3.15 ng/mL
- Stability, mean concentration found [1, 9]: 386.59 ± 20.07 ng/mL
- Stability, mean concentration found [1, 10]: 5.65 ± 0.12 ng/mL
- Stability, mean concentration found [1, 11]: 41.43 ± 0.76 ng/mL
- Stability, mean concentration found [1, 12]: 381.78 ± 17.23 ng/mL
- Stability, mean concentration found [1, 13]: 6.39 ± 0.23 ng/mL
- Stability, mean concentration found [1, 14]: 42.93 ± 1.44 ng/mL
- Shape of the serum concentration-time curve ([2]; UC group, oral LXF): double peaks
- Shape of the serum concentration-time curve ([2]; control group, oral LXF): not showed
- AUC(0-inf) ([2]; UC group (4% DSS for 7 days)): 817 ± 177 ng·h/mL
- AUC(0-t) ([2]; UC group (4% DSS for 7 days)): 759 ± 142 ng·h/mL
- Cmax ([2]; UC group (4% DSS for 7 days)): 419 ± 104 ng/mL
- Tmax ([2]; UC group (4% DSS for 7 days)): 0.43 ± 0.47 h
- half-life ([2]; UC group (4% DSS for 7 days)): 3.3 ± 1.52 h
- MRT inf ([2]; UC group (4% DSS for 7 days)): 3.66 ± 1.55 h
- AUC(0-inf) ([2]; control group): 595 ± 117 ng·h/mL
- AUC(0-t) ([2]; control group): 554 ± 74.2 ng·h/mL
- Cmax ([2]; control group): 395 ± 97.7 ng/mL
- Tmax ([2]; control group): 0.08 h
- half-life ([2]; control group): 3.15 ± 0.96 h
- MRT inf ([2]; control group): 3.59 ± 1.43 h

SMILES: C=C1CC[C@@H]2[C@](C)(CO)[C@H](O)CC[C@@]2(C)[C@@H]1C/C=C1/C(=O)OC[C@H]1O [andrographolide]
- Stability, mean concentration found [1, 3]: 3,915.74 ± 98.45 ng/mL
- Stability, mean concentration found [1, 4]: 58.54 ± 4.47 ng/mL
- Stability, mean concentration found [1, 5]: 383.22 ± 9.64 ng/mL
- Stability, mean concentration found [1, 6]: 3,896.61 ± 129.89 ng/ml
- Stability, mean concentration found [1, 7]: 56.68 ± 4.20 ng/mL
- Stability, mean concentration found [1, 8]: 399.59 ± 9.79 ng/mL
- Stability, mean concentration found [1, 9]: 3,923.07 ± 110.39 ng/mL
- Stability, mean concentration found [1, 10]: 60.13 ± 3.34 ng/mL
- Stability, mean concentration found [1, 11]: 396.68 ± 13.05 ng/mL
- Stability, mean concentration found [1, 12]: 3,904.68 ± 126.18 ng/ml
- Stability, mean concentration found [1, 13]: 58.97 ± 2.93 ng/mL
- Stability, mean concentration found [1, 14]: 370.23 ± 17.30 ng/mL
- AUC(0-inf) ([2]; UC group (4% DSS for 7 days)): 18400 ng·h/mL
- AUC(0-t) ([2]; UC group (4% DSS for 7 days)): 15900 ng·h/mL
- Cmax ([2]; UC group (4% DSS for 7 days)): 4090 ng/mL
- Tmax ([2]; UC group (4% DSS for 7 days)): 0.69 ± 0.26 h
- half-life ([2]; UC group (4% DSS for 7 days)): 7.4 ± 5.02 h
- MRT inf ([2]; UC group (4% DSS for 7 days)): 7.4 ± 5.02 h
- AUC(0-inf) ([2]; control group): 7120 ng·h/mL
- AUC(0-t) ([2]; control group): 6430 ng·h/mL
- Cmax ([2]; control group): 2310 ng/mL
- Tmax ([2]; control group): 0.53 ± 0.21 h
- half-life ([2]; control group): 8.77 ± 2.96 h
- MRT inf ([2]; control group): 8.42 ± 2.75 h
